Source: patent US12606526B2, “Substituted salicylamide compounds and use thereof” (HELIOS HUAMING BIOPHARMA CO., LTD., priority 2021, dated 2026)

The compounds below were run against PAD4 (Homo sapiens, UniProt Q9UM07) (assay: PAD4 Inhibition Assay (citrulline formation from BAEE)). Details: PAD4 75 nM, 60-minute preincubation at 37° C., substrate BAEE, 90 minutes.
Type: biochemical
Experimental: PAD4 was diluted to 75 nM in Assay Buffer (50 mM Tris-HCl, 2 mM CaCl2, 2 mM DTT, 1 mM PMSF in H2O) and added to wells with various concentrations of compound or DMSO vehicle in Eppendorf tubes (final volume was 100 μL). Following a 60-minute preincubation at 37° C., the reaction was initiated by the addition of 10 μL substrate (22 mM BAEE in H2O) at 37° C. The reaction was stopped after 90 minutes by the addition of 25 μL HClO4 (5 M), 125 μL Reagent A (10 g/L diacetyl monoxime and 15 g/L NaCl in H2O) and 250 μL Reagent B (10 mg/mL antipyrine and 1.5 mg/mL FeCl3 diluted in detection buffer containing 25% H2SO4, 25% H3PO4 and 50% H2O) in sequence. This assay was quenched in an ice-bath for 5 minutes after boiling for 30 minutes. The citrulline formation was measured in […] (λ=465 nm) on microplate reader and the IC50 was calculated by GraphPad Prism 5.

PAD4, sequence (Q9UM07 whole entry): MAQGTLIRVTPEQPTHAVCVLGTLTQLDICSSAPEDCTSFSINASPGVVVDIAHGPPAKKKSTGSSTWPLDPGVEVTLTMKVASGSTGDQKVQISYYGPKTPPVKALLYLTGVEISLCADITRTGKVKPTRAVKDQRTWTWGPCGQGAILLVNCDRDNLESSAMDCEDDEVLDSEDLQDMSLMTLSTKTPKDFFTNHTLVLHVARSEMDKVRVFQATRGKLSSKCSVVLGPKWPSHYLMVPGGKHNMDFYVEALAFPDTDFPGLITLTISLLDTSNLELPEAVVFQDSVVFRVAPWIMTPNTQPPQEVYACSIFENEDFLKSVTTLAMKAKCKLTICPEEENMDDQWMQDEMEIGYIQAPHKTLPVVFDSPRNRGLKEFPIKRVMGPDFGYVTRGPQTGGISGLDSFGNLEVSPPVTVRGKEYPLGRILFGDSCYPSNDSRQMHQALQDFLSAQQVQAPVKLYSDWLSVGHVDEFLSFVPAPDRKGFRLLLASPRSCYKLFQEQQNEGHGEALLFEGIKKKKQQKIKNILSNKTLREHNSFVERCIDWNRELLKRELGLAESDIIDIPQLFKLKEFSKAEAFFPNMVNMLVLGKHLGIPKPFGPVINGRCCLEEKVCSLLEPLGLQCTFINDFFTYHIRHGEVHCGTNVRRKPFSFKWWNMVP

Row | Structure (SMILES) | IC50 [nM]
1 | COc1cc2c(OC)cccc2cc1C(=O)N[C@@H](CCCNC(=N)CF)C(=O)NCc1ccccc1 [EX-1, (S)-N-(1-(benzylamino)-5-(2-fluoroacetimidamido)-1-oxopentan-2-yl)-3,5-dimethoxy-2-naphthamide] | < 500
2 | COc1cc2ccccc2cc1C(=O)N[C@@H](CCCNC(=N)CF)C(=O)NCc1ccccc1 [EX-2, (S)-N-(1-(Benzylamino)-5-(2-fluoroacetimidamido)-1-oxopentan-2-yl)-3-methoxy-2-naphthamide] | < 500
3 | COc1cccc(OC)c1C(=O)N[C@@H](CCCNC(=N)CF)C(=O)NCc1ccc(Cl)cc1 [EX-3, (S)-N-(1-((4-Chlorobenzyl)amino)-5-(2-fluoroacetimidamido)-1-oxopentan-2-yl)-2,6-dimethoxybenzamide] | < 500
4 | COc1cccc(Cl)c1C(=O)N[C@@H](CCCNC(=N)CF)C(=O)NCc1ccc(Cl)cc1 [EX-4, (S)-2-Chloro-N-(1-((4-chlorobenzyl)amino)-5-(2-fluoroacetimidamido)-1-oxopentan-2-yl)-6-methoxybenzamide] | 500 to 10000
5 | COc1ccccc1C(=O)N[C@@H](CCCNC(=N)CF)C(=O)NCc1ccc(Cl)cc1 [EX-5, (S)-N-(1-((4-Chlorobenzyl)amino)-5-(2-fluoroacetimidamido)-1-oxopentan-2-yl)-2-methoxybenzamide] | 500 to 10000
6 | COc1ccc(Cl)cc1C(=O)N[C@@H](CCCNC(=N)CF)C(=O)NCc1ccc(Cl)cc1 [EX-6, (S)-5-Chloro-N-(1-((4-chlorobenzyl)amino)-5-(2-fluoroacetimidamido)-1-oxopentan-2-yl)-2-methoxybenzamide] | < 500
7 | COc1ccc(-c2ccccc2)cc1C(=O)N[C@@H](CCCNC(=N)CF)C(=O)NCc1ccccc1 [EX-7, (S)-N-(1-(Benzylamino)-5-(2-fluoroacetimidamido)-1-oxopentan-2-yl)-4-methoxy-[1,1′-biphenyl]-3-carboxamide] | < 500
8 | COc1ccc(-c2ccccc2)cc1C(=O)N[C@@H](CCCNC(=N)CF)C(=O)NCc1cccc(C)c1 [EX-8, (S)-N-(5-(2-Fluoroacetimidamido)-1-((3-methylbenzyl)amino)-1-oxopentan-2-yl)-4-methoxy-[1,1′-biphenyl]-3-carboxamide] | 500 to 10000
9 | COc1ccc(-c2ccccc2)cc1C(=O)N[C@@H](CCCNC(=N)CF)C(=O)NCc1cccc(Cl)c1 [EX-9, (S)-N-(1-((3-Chlorobenzyl)amino)-5-(2-fluoroacetimidamido)-1-oxopentan-2-yl)-4-methoxy-[1,1′-biphenyl]-3-carboxamide] | 500 to 10000
10 | COc1ccc(-c2ccccc2)cc1C(=O)N[C@@H](CCCNC(=N)CF)C(=O)NCc1ccccn1 [EX-10, (S)-N-(5-(2-Fluoroacetimidamido)-1-oxo-1-((pyridin-2-ylmethyl)amino)pentan-2-yl)-4-methoxy-[1,1′-biphenyl]-3-carboxamide] | < 500
11 | COc1ccc(-c2cccc(Cl)c2)cc1C(=O)N[C@@H](CCCNC(=N)CF)C(=O)NCc1ccccc1 [EX-11, (S)-N-(1-(Benzylamino)-5-(2-fluoroacetimidamido)-1-oxopentan-2-yl)-3′-chloro-4-methoxy-[1,1′-biphenyl]-3-carboxamide] | 500 to 10000
12 | COc1ccc(-c2cccc(C)c2)cc1C(=O)N[C@@H](CCCNC(=N)CF)C(=O)NCc1ccccc1 [EX-12, (S)-N-(1-(Benzylamino)-5-(2-fluoroacetimidamido)-1-oxopentan-2-yl)-4-methoxy-3′-methyl-[1,1′-biphenyl]-3-carboxamide] | < 500
13 | COc1ccccc1CNC(=O)[C@H](CCCNC(=N)CF)NC(=O)c1cc(-c2ccccc2)ccc1OC [EX-13, (S)-N-(5-(2-Fluoroacetimidamido)-1-((2-methoxybenzyl)amino)-1-oxopentan-2-yl)-4-methoxy-[1,1′-biphenyl]-3-carboxamide] | < 500
14 | COc1ccc(Cl)cc1C(=O)N[C@@H](CCCNC(=N)CF)C(=O)NCc1cccc(Cl)c1 [EX-14, (S)-5-Chloro-N-(1-((3-chlorobenzyl)amino)-5-(2-fluoroacetimidamido)-1-oxopentan-2-yl)-2-methoxybenzamide] | < 500
15 | COc1ccc(Cl)cc1C(=O)N[C@@H](CCCNC(=N)CF)C(=O)NCc1ccccc1Cl [EX-15, (S)-5-Chloro-N-(1-((2-chlorobenzyl)amino)-5-(2-fluoroacetimidamido)-1-oxopentan-2-yl)-2-methoxybenzamide] | < 500
16 | COc1ccc(Cl)cc1C(=O)N[C@@H](CCCNC(=N)CF)C(=O)NCc1ccc(C)cc1 [EX-16, (S)-5-Chloro-N-(5-(2-fluoroacetimidamido)-1-((4-methylbenzyl)amino)-1-oxopentan-2-yl)-2-methoxybenzamide] | < 500
17 | COc1ccc(CNC(=O)[C@H](CCCNC(=N)CF)NC(=O)c2cc(Cl)ccc2OC)cc1 [EX-17, (S)-5-Chloro-N-(5-(2-fluoroacetimidamido)-1-((4-methoxybenzyl)amino)-1-oxopentan-2-yl)-2-methoxybenzamide] | < 500
18 | COc1ccc(Cl)cc1C(=O)N[C@@H](CCCNC(=N)CF)C(=O)NCc1ccccn1 [EX-18, (S)-5-Chloro-N-(5-(2-fluoroacetimidamido)-1-oxo-1-((pyridin-2-ylmethyl)amino)pentan-2-yl)-2-methoxybenzamide] | < 500
19 | COc1cc2c(OC)cccc2cc1C(=O)N[C@@H](CCCNC(=N)CF)C(=O)NCc1ccc(Cl)cc1 [EX-19, (S)-N-(1-((4-Chlorobenzyl)amino)-5-(2-fluoroacetimidamido)-1-oxopentan-2-yl)-3,5-dimethoxy-2-naphthamide] | < 500
20 | COc1cc2c(OC)cccc2cc1C(=O)N[C@@H](CCCNC(=N)CF)C(=O)NCc1cccc(Cl)c1 [EX-20, (S)-N-(1-((3-Chlorobenzyl)amino)-5-(2-fluoroacetimidamido)-1-oxopentan-2-yl)-3,5-dimethoxy-2-naphthamide] | < 500
21 | COc1cc2c(OC)cccc2cc1C(=O)N[C@@H](CCCNC(=N)CF)C(=O)NCc1cccc(F)c1 [EX-21, (S)-N-(5-(2-Fluoroacetimidamido)-1-((3-fluorobenzyl)amino)-1-oxopentan-2-yl)-3,5-dimethoxy-2-naphthamide] | < 500
22 | COc1cc2c(OC)cccc2cc1C(=O)N[C@@H](CCCNC(=N)CF)C(=O)NCc1ccc(F)cc1 [EX-22, (S)-N-(5-(2-Fluoroacetimidamido)-1-((4-fluorobenzyl)amino)-1-oxopentan-2-yl)-3,5-dimethoxy-2-naphthamide] | < 500
23 | COc1c(C(=O)N[C@@H](CCCNC(=N)CF)C(=O)NCc2ccccc2)ccc2cc(N(C)C)ccc12 [EX-23, (S)-N-(1-(Benzylamino)-5-(2-fluoroacetimidamido)-1-oxopentan-2-yl)-6-(dimethylamino)-1-methoxy-2-naphthamide] | < 500
24 | COc1cc2c(OC)cccc2cc1C(=O)N[C@@H](CCCNC(=N)CF)C(=O)NCc1cccc(NC(=O)CCCNC(=O)CCCC[C@@H]2SC[C@@H]3NC(=O)N[C@@H]32)c1 [EX-24] | < 500
